Test results: paper PMC10218257, “Ionic Levothyroxine Formulations: Synthesis, Bioavailability, and Cytotoxicity Studies” (International Journal of Molecular Sciences, 2023)
Like-named read-outs stand apart in the source and are kept apart here.

How the values were obtained:
[1] = system: L929 cells; experiment: Cell viability assay (MTS, CellTiter 96); format: cell-based; details: 24 h exposure, 50 and 75 ppm
Experimental: The biological effect of compounds was evaluated on the L929 cell line (DSMZ—German Collection of Microorganisms and Cell Culture GmbH). […] Cells only incubated with complete media were used as negative control and DMSO was chosen […]. […] The amount of formazan product was measured in a microplate reader (VICTOR Nivo TM, PerkinElmer, Waltham, MA, USA) at 490 nm, as absorbance is directly proportional to the number of viable cells in culture. Cell viability was expressed as the percentage of cells exposed to extracts vs. controls. Statistical analysis was performed using GraphPad Prism 7.00 software. A two-way ANOVA test was performed as well as Tukey’s multiple comparison test.

[2] = Permeability assays, Franz-type diffusion cell; parameters: Kd (partition coefficient): unit not given beside the values
Description: In this context, a polyethersulphone (PES-U) membrane was selected for the determination of these two parameters. The diffusion coefficient is associated with the amount of API diffused with time. Therefore, the increase in the diffusion coefficient is proportional to the speed of the drug's diffusion through the membrane. Another aspect to consider is that the solubility of the drug is proportional to the driving force. […] The chosen membrane was polyethersulphone (PES-U) with 150 μm thickness and 0.45 μm pore size (Sartorius Stedim Biotech, Göttingen, Germany), which was placed between the two compartments and held with a stainless-steel clamp. The receptor compartment was filled with PBS solution, and air bubbles were removed. […] The determination of the API diffused was performed by HPLC. The assays were performed with three replicates. […] The cumulative mass of drug diffused to the receptor compartment was determined taking into consideration the replacement of aliquots with fresh medium and the dilution derived from the addition of fresh buffer. […] According to a derived solution of Fick's law of diffusion, it is possible to determine the diffusion coefficient, D, of the API through the membrane. […] Cf and Ci are the final and initial concentrations in the receptor compartment, and Ct is the concentration in the receptor compartment at time t.

[3] = Thermogravimetric analysis (TGA); format: physicochemical; details: 5 °C min^−1, argon
Experimental: Thermogravimetric analyses were performed over a temperature range from room temperature to 500 °C in a thermogravimetric analyzer from Setaram Labsys EVO (France) with a weighing precision of ±0.01%. Each run was conducted at a heating rate of 5 °C min^−1, under a highly pure argon atmosphere purged at 50 mL min^−1, with a mass sample between 8 and 10 mg.

[4] = Solubility assays in water, PBS and serum; format: physicochemical
Experimental: All the assays were carried out in triplicate. The average and standard deviation were calculated for the three replicates.

[5] = PES-U membrane, 37 °C, 50 mg L^−1, 8-hour assay

Kd (partition coefficient) [2]	Permeability [2]	ΔTons, onset shifted to lower temperatures vs neat [Na][T4] [3]	Solubility in PBS 37 °C ([4]; PBS, 37 °C) [µg/mL]	Solubility in Serum 37 °C ([4]; serum, 37 °C) [µg/mL]	Solubility in Water 25 °C ([4]; water, 25 °C) [µg/mL]	Solubility in Water 37 °C ([4]; water, 37 °C) [µg/mL]	Compound	Cell viability / cytotoxicity [1]	Diffusion [2, 5]	Permeability [2, 5]	onset of the major weight decrease (degradation) [3] [°C]
–	–	–	–	–	–	–	NC(Cc1cc(I)c(Oc2cc(I)c(O)c(I)c2)c(I)c1)C(=O)[O-].[Na+] (centres unmarked) [[Na][T4], Levothyroxine sodium salt pentahydrate, reference compound]	without losing their viability	0.49 (×10^−6) cm^2 s^−1	2.04 (×10^−5) cm s^−1	175
0.45	1.02 (×10^−5) cm s^−1	~ 30 °C	324 ± 4	321 ± 7	277 ± 34	379 ± 22	1-(2-Hydroxyethyl)-3-Methylimidazolium Levothyroxine [[C2OHMiM][T4]]	–	–	–	–
